Test results as given in US12522583B2, “Benzimidazole derivatives and aza-benzimidazole derivatives as Janus kinase 2 inhibitors and uses thereof” (Dana-Farber Cancer Institute, Inc., priority 2018, dated 2026).

What was measured:
Assay in all cases: KINOMEscan
Format in all cases: binding
Conditions in all cases: read-out: percent control
SNRK = SNRK (Homo sapiens (Human), UniProt Q9NRH2)
Description: (§1) Example 2. In Vitro Kinase Selectivity Profiling of the Compounds of the Present Disclosure

MLK3 = MLK3 (Homo sapiens (Human), UniProt Q16584)
Description: as §1

DMPK = DMPK (Homo sapiens (Human), UniProt Q09013)
Description: as §1

ACVR1B = ACVR1B (Homo sapiens (Human), UniProt P36896)
Description: as §1

[1] = target: RSK3(Kin.Dom.2- C-terminal) (Homo sapiens (Human), UniProt Q15349)
Description: as §1

YSK1 = YSK1 (Homo sapiens (Human), UniProt O00506)
Description: as §1

MET(M1250T) = MET(M1250T) (Homo sapiens (Human), UniProt P08581, M1250T)
Description: as §1

CDK5 = CDK5 (Homo sapiens (Human), UniProt Q00535)
Description: as §1

FAK = FAK (Homo sapiens (Human), UniProt Q05397)
Description: as §1

KIT(V559D, V654A) = KIT(V559D, V654A) (Homo sapiens (Human), UniProt P10721, V559D/V654A)
Description: as §1

RET(V804M) = RET(V804M) (Homo sapiens (Human), UniProt P07949, V804M)
Description: as §1

p38-alpha = p38-alpha (Homo sapiens (Human), UniProt Q16539)
Description: as §1

AKT3 = AKT3 (Homo sapiens (Human), UniProt Q9Y243)
Description: as §1

ADCK4 = ADCK4 (Homo sapiens (Human), UniProt Q96D53)
Description: as §1

CDKL2 = CDKL2 (Homo sapiens (Human), UniProt Q92772)
Description: as §1

DYRK1B = DYRK1B (Homo sapiens (Human), UniProt Q9Y463)
Description: as §1

DCAMKL1 = DCAMKL1 (Homo sapiens (Human), UniProt O15075)
Description: as §1

DRAK1 = DRAK1 (Homo sapiens (Human), UniProt Q9UEE5)
Description: as §1

ABL1-nonphosphorylated = ABL1-nonphosphorylated (Homo sapiens (Human), UniProt P00519)
Description: as §1

CAMK2G = CAMK2G (Homo sapiens (Human), UniProt Q13555)
Description: as §1

PFCDPK1(P.falciparum) = PFCDPK1(P.falciparum) (Plasmodium falciparum (isolate 3D7), UniProt P62344)
Description: as §1

MEK1 = MEK1 (Homo sapiens (Human), UniProt Q02750)
Description: as §1

MST4 = MST4 (Homo sapiens (Human), UniProt Q9P289)
Description: as §1

AURKA = AURKA (Homo sapiens (Human), UniProt O14965)
Description: as §1

CHEK1 = CHEK1 (Homo sapiens (Human), UniProt O14757)
Description: as §1

BUB 1 = BUB 1 (Homo sapiens (Human), UniProt O43683)
Description: as §1

MEK2 = MEK2 (Homo sapiens (Human), UniProt P36507)
Description: as §1

DDR2 = DDR2 (Homo sapiens (Human), UniProt Q16832)
Description: as §1

TEC = TEC (Homo sapiens (Human), UniProt P42680)
Description: as §1

CTK = CTK (Homo sapiens (Human), UniProt P42679)
Description: as §1

TRKC = TRKC (Homo sapiens (Human), UniProt Q16288)
Description: as §1

CSNK1G3 = CSNK1G3 (Homo sapiens (Human), UniProt Q9Y6M4)
Description: as §1

SGK3 = SGK3 (Homo sapiens (Human), UniProt Q96BR1)
Description: as §1

CSNK1G2 = CSNK1G2 (Homo sapiens (Human), UniProt P78368)
Description: as §1

[2] = target: ABL1(T315I)-phosphorylated (Homo sapiens (Human), UniProt P00519, T315I)
Description: as §1

[3] = target: ABL1(Y253F)-phosphorylated (Homo sapiens (Human), UniProt P00519, Y253F)
Description: as §1

ALK = ALK (Homo sapiens (Human), UniProt Q9UM73)
Description: as §1

RET(V804L) = RET(V804L) (Homo sapiens (Human), UniProt P07949, V804L)
Description: as §1

MAPKAPK5 = MAPKAPK5 (Homo sapiens (Human), UniProt Q8IW41)
Description: as §1

MUSK = MUSK (Homo sapiens (Human), UniProt O15146)
Description: as §1

FAK, sequence (Q05397 whole entry): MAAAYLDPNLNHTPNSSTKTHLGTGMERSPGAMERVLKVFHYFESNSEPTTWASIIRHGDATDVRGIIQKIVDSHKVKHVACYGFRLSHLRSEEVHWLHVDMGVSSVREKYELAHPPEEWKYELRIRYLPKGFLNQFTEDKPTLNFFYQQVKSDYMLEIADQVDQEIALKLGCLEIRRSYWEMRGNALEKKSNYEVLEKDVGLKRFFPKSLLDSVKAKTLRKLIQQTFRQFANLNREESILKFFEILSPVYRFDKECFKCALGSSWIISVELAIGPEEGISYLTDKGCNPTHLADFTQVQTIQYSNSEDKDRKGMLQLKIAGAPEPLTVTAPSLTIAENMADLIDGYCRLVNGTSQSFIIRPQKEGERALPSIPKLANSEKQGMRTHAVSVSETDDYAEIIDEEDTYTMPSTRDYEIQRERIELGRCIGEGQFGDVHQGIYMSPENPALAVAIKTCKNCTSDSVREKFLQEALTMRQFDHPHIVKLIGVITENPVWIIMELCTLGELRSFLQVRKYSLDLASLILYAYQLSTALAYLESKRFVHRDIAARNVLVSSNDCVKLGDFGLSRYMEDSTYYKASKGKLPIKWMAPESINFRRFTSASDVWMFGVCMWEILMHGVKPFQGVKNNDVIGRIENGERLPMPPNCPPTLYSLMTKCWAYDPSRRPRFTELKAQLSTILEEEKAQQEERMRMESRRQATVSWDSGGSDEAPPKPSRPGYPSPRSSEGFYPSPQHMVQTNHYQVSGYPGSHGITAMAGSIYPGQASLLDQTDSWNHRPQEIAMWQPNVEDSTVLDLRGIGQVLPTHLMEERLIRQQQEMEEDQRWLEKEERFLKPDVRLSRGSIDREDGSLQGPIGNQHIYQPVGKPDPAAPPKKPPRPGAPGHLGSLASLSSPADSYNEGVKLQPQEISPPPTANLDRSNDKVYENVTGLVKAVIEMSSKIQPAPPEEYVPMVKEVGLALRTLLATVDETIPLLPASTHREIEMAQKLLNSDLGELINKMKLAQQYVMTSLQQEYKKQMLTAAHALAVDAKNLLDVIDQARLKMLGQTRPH
DYRK1B, sequence (Q9Y463 whole entry): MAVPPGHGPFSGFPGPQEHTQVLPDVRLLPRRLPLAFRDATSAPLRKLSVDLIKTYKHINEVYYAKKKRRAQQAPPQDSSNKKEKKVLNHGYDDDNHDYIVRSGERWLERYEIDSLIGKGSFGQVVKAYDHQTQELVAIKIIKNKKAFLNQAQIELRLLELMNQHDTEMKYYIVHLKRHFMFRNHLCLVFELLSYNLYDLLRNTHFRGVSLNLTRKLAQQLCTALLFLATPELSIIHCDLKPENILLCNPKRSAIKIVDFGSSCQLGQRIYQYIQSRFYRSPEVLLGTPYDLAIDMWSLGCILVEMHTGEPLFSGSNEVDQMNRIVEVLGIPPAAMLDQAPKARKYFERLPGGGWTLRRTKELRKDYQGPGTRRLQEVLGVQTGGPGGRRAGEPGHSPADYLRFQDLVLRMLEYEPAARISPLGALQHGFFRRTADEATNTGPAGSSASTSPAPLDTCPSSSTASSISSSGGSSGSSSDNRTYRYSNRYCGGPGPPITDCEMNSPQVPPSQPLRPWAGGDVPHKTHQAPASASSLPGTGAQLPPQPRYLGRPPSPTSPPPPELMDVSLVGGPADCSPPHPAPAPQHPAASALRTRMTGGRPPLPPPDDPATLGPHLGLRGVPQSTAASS
AURKA, sequence (O14965 whole entry): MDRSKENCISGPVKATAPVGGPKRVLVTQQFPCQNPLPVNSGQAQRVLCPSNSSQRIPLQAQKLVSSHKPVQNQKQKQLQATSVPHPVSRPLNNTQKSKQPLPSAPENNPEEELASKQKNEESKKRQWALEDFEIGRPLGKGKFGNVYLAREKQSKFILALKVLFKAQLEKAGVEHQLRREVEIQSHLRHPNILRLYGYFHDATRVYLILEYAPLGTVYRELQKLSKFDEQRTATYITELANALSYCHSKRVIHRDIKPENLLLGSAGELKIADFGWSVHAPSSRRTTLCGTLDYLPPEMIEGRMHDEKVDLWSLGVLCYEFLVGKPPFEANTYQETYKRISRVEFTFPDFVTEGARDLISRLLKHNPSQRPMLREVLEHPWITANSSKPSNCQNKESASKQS
MUSK, sequence (O15146 24-869): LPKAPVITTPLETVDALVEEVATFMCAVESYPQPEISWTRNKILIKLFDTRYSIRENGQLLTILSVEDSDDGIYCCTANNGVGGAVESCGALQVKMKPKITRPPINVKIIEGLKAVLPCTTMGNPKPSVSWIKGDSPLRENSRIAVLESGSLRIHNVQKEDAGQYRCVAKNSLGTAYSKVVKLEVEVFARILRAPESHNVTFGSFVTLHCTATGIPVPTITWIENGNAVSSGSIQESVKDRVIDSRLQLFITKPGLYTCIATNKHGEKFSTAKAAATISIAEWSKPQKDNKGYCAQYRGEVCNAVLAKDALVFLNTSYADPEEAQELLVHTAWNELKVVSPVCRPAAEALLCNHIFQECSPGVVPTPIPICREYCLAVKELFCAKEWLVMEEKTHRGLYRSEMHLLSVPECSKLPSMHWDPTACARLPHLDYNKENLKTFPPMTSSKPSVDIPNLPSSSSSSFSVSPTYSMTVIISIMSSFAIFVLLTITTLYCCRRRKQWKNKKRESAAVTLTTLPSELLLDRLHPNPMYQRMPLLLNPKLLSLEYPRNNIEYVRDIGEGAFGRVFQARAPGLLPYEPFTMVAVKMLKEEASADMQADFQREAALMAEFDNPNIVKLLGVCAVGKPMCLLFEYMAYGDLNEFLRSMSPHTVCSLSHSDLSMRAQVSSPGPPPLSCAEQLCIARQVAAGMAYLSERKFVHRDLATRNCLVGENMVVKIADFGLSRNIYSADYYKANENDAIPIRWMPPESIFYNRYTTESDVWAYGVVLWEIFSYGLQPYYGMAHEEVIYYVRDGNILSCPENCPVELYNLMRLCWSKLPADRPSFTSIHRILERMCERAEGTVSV
MLK3, sequence (Q16584 whole entry): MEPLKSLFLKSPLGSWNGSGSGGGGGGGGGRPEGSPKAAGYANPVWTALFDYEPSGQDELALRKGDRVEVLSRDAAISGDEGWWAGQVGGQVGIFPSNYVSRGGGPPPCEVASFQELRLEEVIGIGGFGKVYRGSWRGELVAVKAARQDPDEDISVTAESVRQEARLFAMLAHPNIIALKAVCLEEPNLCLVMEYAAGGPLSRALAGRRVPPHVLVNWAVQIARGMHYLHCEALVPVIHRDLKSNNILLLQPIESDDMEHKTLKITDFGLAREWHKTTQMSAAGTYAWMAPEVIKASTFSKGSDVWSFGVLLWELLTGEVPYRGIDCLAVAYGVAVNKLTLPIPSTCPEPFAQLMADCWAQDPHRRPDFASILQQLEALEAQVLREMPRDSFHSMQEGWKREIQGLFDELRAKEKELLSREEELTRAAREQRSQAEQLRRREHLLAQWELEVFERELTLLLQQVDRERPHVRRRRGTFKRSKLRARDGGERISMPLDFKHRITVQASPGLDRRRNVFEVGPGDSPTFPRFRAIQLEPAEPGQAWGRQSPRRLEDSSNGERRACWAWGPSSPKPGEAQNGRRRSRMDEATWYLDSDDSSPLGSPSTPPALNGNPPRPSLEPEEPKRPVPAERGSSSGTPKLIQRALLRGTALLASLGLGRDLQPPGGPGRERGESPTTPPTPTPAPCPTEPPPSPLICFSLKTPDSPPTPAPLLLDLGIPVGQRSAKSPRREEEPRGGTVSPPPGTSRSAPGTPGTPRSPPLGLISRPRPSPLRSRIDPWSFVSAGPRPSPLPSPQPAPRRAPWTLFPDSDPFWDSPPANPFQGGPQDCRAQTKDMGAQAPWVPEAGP
MST4, sequence (Q9P289 whole entry): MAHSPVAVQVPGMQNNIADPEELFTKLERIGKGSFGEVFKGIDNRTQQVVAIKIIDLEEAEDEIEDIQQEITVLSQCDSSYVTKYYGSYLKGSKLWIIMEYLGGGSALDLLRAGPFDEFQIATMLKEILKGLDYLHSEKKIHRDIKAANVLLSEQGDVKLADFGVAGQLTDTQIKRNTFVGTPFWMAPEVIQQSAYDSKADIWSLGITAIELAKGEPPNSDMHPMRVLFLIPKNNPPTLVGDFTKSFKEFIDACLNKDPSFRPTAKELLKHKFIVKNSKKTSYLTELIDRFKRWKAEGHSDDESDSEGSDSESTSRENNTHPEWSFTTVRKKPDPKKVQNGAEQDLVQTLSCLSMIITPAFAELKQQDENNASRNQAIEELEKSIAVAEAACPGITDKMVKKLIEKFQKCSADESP
CDKL2, sequence (Q92772 whole entry): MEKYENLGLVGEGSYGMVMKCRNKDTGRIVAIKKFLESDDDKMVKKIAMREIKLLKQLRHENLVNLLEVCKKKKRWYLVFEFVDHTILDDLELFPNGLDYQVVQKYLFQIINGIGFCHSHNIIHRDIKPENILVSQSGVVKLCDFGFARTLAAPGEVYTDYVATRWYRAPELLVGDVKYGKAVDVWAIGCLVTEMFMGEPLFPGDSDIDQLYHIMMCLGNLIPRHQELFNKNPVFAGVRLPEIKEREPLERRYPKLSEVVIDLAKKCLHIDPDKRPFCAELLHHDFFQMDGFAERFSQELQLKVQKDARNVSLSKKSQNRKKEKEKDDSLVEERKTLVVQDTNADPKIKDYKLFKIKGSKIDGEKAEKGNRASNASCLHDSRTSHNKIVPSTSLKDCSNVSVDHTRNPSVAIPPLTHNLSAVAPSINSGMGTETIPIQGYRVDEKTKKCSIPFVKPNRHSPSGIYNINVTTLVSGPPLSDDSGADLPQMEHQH
RSK3(Kin.Dom.2- C-terminal), sequence (Q15349 415-672 limits assumed): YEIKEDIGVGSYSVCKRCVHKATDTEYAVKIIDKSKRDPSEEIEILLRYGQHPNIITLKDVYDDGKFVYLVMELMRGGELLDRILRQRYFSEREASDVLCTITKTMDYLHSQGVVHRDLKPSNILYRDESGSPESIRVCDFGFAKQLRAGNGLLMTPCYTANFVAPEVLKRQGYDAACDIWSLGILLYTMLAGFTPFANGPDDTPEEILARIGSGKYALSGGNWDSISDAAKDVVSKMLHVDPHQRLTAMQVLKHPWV

In the case of `CCN1CCN(Cc2ccc(Nc3nc4ccc(Oc5ccnc(NC(C)=O)c5)cc4n3C)cc2C(F)(F)F)CC1` [Compound I-2], the remaining binding at 1 µM (SNRK) was 100%, the remaining binding at 1 µM (MLK3) was 100% and the remaining binding at 1 µM (DMPK) was 94%. For the same compound, the remaining binding at 1 µM (ACVR1B) was 100%, the remaining binding at 1 µM [1] was 82% and the remaining binding at 1 µM (YSK1) was 94%. For the same compound, the remaining binding at 1 µM (MET(M1250T)) was 63%, the remaining binding at 1 µM (CDK5) was 97% and the remaining binding at 1 µM (FAK) was 98%. The remaining binding at 1 µM (KIT(V559D, V654A)) was 7.4%, the remaining binding at 1 µM (RET(V804M)) was 9.9% and the remaining binding at 1 µM (p38-alpha) was 92%. It also gave a remaining binding at 1 µM (AKT3) of 99%, a remaining binding at 1 µM (ADCK4) of 84% and a remaining binding at 1 µM (CDKL2) of 1.9%. For the same compound, the remaining binding at 1 µM (DYRK1B) was 71%, the remaining binding at 1 µM (DCAMKL1) was 91% and the remaining binding at 1 µM (DRAK1) was 100%. For the same compound, the remaining binding at 1 µM (ABL1-nonphosphorylated) was 0.3%, the remaining binding at 1 µM (CAMK2G) was 100% and the remaining binding at 1 µM (PFCDPK1(P.falciparum)) was 77%. For the same compound, the remaining binding at 1 µM (MEK1) was 94%, the remaining binding at 1 µM (MST4) was 89% and the remaining binding at 1 µM (AURKA) was 69%. The remaining binding at 1 µM (CHEK1) was 100%, the remaining binding at 1 µM (BUB 1) was 100% and the remaining binding at 1 µM (MEK2) was 77%. For the same compound, the remaining binding at 1 µM (DDR2) was 0%, the remaining binding at 1 µM (TEC) was 78% and the remaining binding at 1 µM (CTK) was 83%. For the same compound, the remaining binding at 1 µM (TRKC) was 44%, the remaining binding at 1 µM (CSNK1G3) was 89% and the remaining binding at 1 µM (SGK3) was 93%. For the same compound, the remaining binding at 1 µM (CSNK1G2) was 100%, the remaining binding at 1 µM [2] was 62% and the remaining binding at 1 µM [3] was 44%. For the same compound, the remaining binding at 1 µM (ALK) was 76%, the remaining binding at 1 µM (RET(V804L)) was 15% and the remaining binding at 1 µM (MAPKAPK5) was 99%. For the same compound, the remaining binding at 1 µM (MUSK) was 100%.

`CCN1CCN(Cc2ccc(Nc3nc4ccc(Oc5ccnc(NC(C)=O)c5)c(C)c4n3C)cc2C(F)(F)F)CC1` [Compound I-6, N-(4-(2-(4-((4-ethylpiperazin-1-yl)methyl)-3-(trifluoromethyl)phenylamino)-1,7-dimethyl-1H-benzo[d]imidazol-6-yloxy)pyridin-2-yl)acetamide] showed a remaining binding at 1 µM (SNRK) of 81%, a remaining binding at 1 µM (MLK3) of 95% and a remaining binding at 1 µM (DMPK) of 100%. It also gave a remaining binding at 1 µM (ACVR1B) of 94%, a remaining binding at 1 µM [1] of 95% and a remaining binding at 1 µM (YSK1) of 65%. For the same compound, the remaining binding at 1 µM (MET(M1250T)) was 33%, the remaining binding at 1 µM (CDK5) was 90% and the remaining binding at 1 µM (FAK) was 94%. The remaining binding at 1 µM (KIT(V559D, V654A)) was 19%, the remaining binding at 1 µM (RET(V804M)) was 4.5% and the remaining binding at 1 µM (p38-alpha) was 44%. For the same compound, the remaining binding at 1 µM (AKT3) was 100%, the remaining binding at 1 µM (ADCK4) was 78% and the remaining binding at 1 µM (CDKL2) was 0.5%. The remaining binding at 1 µM (DYRK1B) was 50%, the remaining binding at 1 µM (DCAMKL1) was 69% and the remaining binding at 1 µM (DRAK1) was 99%. It also gave a remaining binding at 1 µM (ABL1-nonphosphorylated) of 0.05%, a remaining binding at 1 µM (CAMK2G) of 100% and a remaining binding at 1 µM (PFCDPK1(P.falciparum)) of 65%. For the same compound, the remaining binding at 1 µM (MEK1) was 87%, the remaining binding at 1 µM (MST4) was 100% and the remaining binding at 1 µM (AURKA) was 98%. For the same compound, the remaining binding at 1 µM (CHEK1) was 100%, the remaining binding at 1 µM (BUB 1) was 100% and the remaining binding at 1 µM (MEK2) was 100%. For the same compound, the remaining binding at 1 µM (DDR2) was 0%, the remaining binding at 1 µM (TEC) was 100% and the remaining binding at 1 µM (CTK) was 90%. It also gave a remaining binding at 1 µM (TRKC) of 3.4%, a remaining binding at 1 µM (CSNK1G3) of 94% and a remaining binding at 1 µM (SGK3) of 100%. The remaining binding at 1 µM (CSNK1G2) was 100%, the remaining binding at 1 µM [2] was 87% and the remaining binding at 1 µM [3] was 5.5%. For the same compound, the remaining binding at 1 µM (ALK) was 90%, the remaining binding at 1 µM (RET(V804L)) was 7.8% and the remaining binding at 1 µM (MAPKAPK5) was 83%. For the same compound, the remaining binding at 1 µM (MUSK) was 72%.
